According to the supplement of paper PMC11061612:

Experiments:
Lapatinib = compound: CS(=O)(=O)CCNCc1ccc(-c2ccc3ncnc(Nc4ccc(OCc5cccc(F)c5)c(Cl)c4)c3c2)o1 [Lapatinib]; conditions: max 10 µM
Method in brief: (§1)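 Cancer cell lines were dosed for 72 hours (final DMSO typically 0.2%) after 24 hours at 37°C and 5% CO2 in 1536-well plates containing 7.5 μl DMEM/F12 or RPMI with 10% FBS. Viability came from CellTiter-Glo 2.0 luminescence, scaled between blank-well and DMSO-well means, and dose responses were fitted to a two-parameter logistic curve with a non-linear mixed effects model. The single-agent IC50 was obtained from this fit.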

AZD8186 = compound: C[C@@H](Nc1cc(F)cc(F)c1)c1cc(C(=O)N(C)C)cc2c(=O)cc(N3CCOCC3)oc12 [AZD8186]; conditions: max 3 µM
Method in brief: as §1

AZD4320 = compound: CN(CC[C@H](CSC1=CC=CC=C1)NC2=C(C=C(C=C2)S(=O)(=O)NC(=O)C3=CC=C(C=C3)N4CCC(CC4)[C@H](C5=CC=CC=C5C6=CC=C(C=C6)Cl)O)S(=O)(=O)C(F)(F)F)CCO [AZD4320]; conditions: max 1 µM
Method in brief: as §1

Olaparib = compound: O=C(c1cc(Cc2n[nH]c(=O)c3ccccc23)ccc1F)N1CCN(C(=O)C2CC2)CC1 [Olaparib]; conditions: max 10 µM
Method in brief: as §1

SN-38 = compound: CCc1c2c(nc3ccc(O)cc13)-c1cc3c(c(=O)n1C2)COC(=O)[C@]3(O)CC [SN-38]; conditions: max 0.3 µM
Method in brief: as §1

SG3199 = compound: CC1=CN2[C@@H](C1)C=NC3=CC(=C(C=C3C2=O)OC)OCCCCCOC4=C(C=C5C(=C4)N=C[C@@H]6CC(=CN6C5=O)C)OC [SG3199]; conditions: max 0.001 µM
Method in brief: as §1

Taselisib = compound: Cc1nc(-c2cn3c(n2)-c2ccc(-c4cnn(C(C)(C)C(N)=O)c4)cc2OCC3)n(C(C)C)n1 [Taselisib]; conditions: max 10 µM
Method in brief: as §1

Trametinib = compound: CC(=O)Nc1cccc(-n2c(=O)n(C3CC3)c(=O)c3c(Nc4ccc(I)cc4F)n(C)c(=O)c(C)c32)c1 [Trametinib]; conditions: max 1 µM
Method in brief: as §1

Capivasertib = compound: C1CN(CCC1(C(=O)N[C@@H](CCO)C2=CC=C(C=C2)Cl)N)C3=NC=NC4=C3C=CN4 [Capivasertib]; conditions: max 10 µM
Method in brief: as §1

Savolitinib = compound: C[C@@H](c1ccc2nccn2c1)n1nnc2ncc(-c3cnn(C)c3)nc21 [Savolitinib]; conditions: max 1 µM
Method in brief: as §1

Gefitinib = compound: COc1cc2ncnc(Nc3ccc(F)c(Cl)c3)c2cc1OCCCN1CCOCC1 [Gefitinib]; conditions: max 10 µM
Method in brief: as §1

Selumetinib = compound: Cn1cnc2c(F)c(Nc3ccc(Br)cc3Cl)c(C(=O)NOCCO)cc21 [Selumetinib]; conditions: max 10 µM
Method in brief: as §1

AZD0156 = compound: CN(C)CCCOc1ccc(-c2ccc3ncc4c(c3c2)n(C2CCOCC2)c(=O)n4C)cn1 [AZD0156]
Method in brief: as §1

Doxorubicin = compound: COc1cccc2c1C(=O)c1c(O)c3c(c(O)c1C2=O)C[C@@](O)(C(=O)CO)C[C@@H]3O[C@H]1C[C@H](N)[C@H](O)[C@H](C)O1 [Doxorubicin]; conditions: max 1 µM
Method in brief: as §1

Dasatinib = compound: CC1=C(C(=CC=C1)Cl)NC(=O)C2=CN=C(S2)NC3=CC(=NC(=N3)C)N4CCN(CC4)CCO [Dasatinib]; conditions: max 2 µM
Method in brief: as §1

AZD1390 = compound: CC(C)n1c(=O)n(C)c2cnc3cc(F)c(-c4ccc(OCCCN5CCCCC5)nc4)cc3c21 [AZD1390]; conditions: max 0.3 µM
Method in brief: as §1

Palbociclib = compound: CC(=O)c1c(C)c2cnc(Nc3ccc(N4CCNCC4)cn3)nc2n(C2CCCC2)c1=O [Palbociclib]; conditions: max 10 µM
Method in brief: as §1

Prexasertib = compound: COc1cccc(OCCCN)c1-c1cc(Nc2cnc(C#N)cn2)n[nH]1 [Prexasertib]; conditions: max 1 µM
Method in brief: as §1

Crizotinib = compound: C[C@@H](Oc1cc(-c2cnn(C3CCNCC3)c2)cnc1N)c1c(Cl)ccc(F)c1Cl [Crizotinib]; conditions: max 10 µM
Method in brief: as §1

Venetoclax = compound: CC1(C)CCC(CN2CCN(c3ccc(C(=O)NS(=O)(=O)c4ccc(NCC5CCOCC5)c([N+](=O)[O-])c4)c(Oc4cnc5[nH]ccc5c4)c3)CC2)=C(c2ccc(Cl)cc2)C1 [Venetoclax]; conditions: max 1 µM
Method in brief: as §1

AZD2811 = compound: CCN(CCO)CCCOc1ccc2c(Nc3cc(CC(=O)Nc4cccc(F)c4)[nH]n3)ncnc2c1 [AZD2811]; conditions: max 1 µM
Method in brief: as §1

AZD6738 = compound: C[C@@H]1COCCN1C2=NC(=NC(=C2)C3(CC3)[S@](=N)(=O)C)C4=C5C=CNC5=NC=C4 [AZD6738]; conditions: max 10 µM
Method in brief: as §1

AZD5991 = compound: Cc1c2c(nn1C)CSCc1cc(n(C)n1)CSc1cc(c3ccccc3c1)OCCCc1c(C(=O)O)n(C)c3c-2c(Cl)ccc13 [AZD5991]; conditions: max 1 µM
Method in brief: as §1

AZD1775 = compound: C=CCn1c(=O)c2cnc(Nc3ccc(N4CCN(C)CC4)cc3)nc2n1-c1cccc(C(C)(C)O)n1 [AZD1775]
Method in brief: as §1

AZD5153 = compound: COc1nnc2ccc(N3CCC(c4ccc(OCCN5CCN(C)C(=O)[C@H]5C)cc4)CC3)nn12 [AZD5153]; conditions: max 1 µM
Method in brief: as §1

Alisertib = compound: COc1cc(Nc2ncc3c(n2)-c2ccc(Cl)cc2C(c2c(F)cccc2OC)=NC3)ccc1C(=O)O [Alisertib]; conditions: max 10 µM
Method in brief: as §1

AZD7648 = compound: Cc1cc2ncnn2cc1Nc1ncc2c(n1)n(C1CCOCC1)c(=O)n2C [AZD7648]; conditions: max 10 µM
Method in brief: as §1

Row | Cell Line | IC50, cell viability 72 h (Lapatinib) [µM] | IC50, cell viability 72 h (AZD8186) [µM] | IC50, cell viability 72 h (AZD4320) [µM] | IC50, cell viability 72 h (Olaparib) [µM] | IC50, cell viability 72 h (SN-38) [µM] | IC50, cell viability 72 h (SG3199) [µM] | IC50, cell viability 72 h (Taselisib) [µM] | IC50, cell viability 72 h (Trametinib) [µM] | IC50, cell viability 72 h (Capivasertib) [µM] | IC50, cell viability 72 h (Savolitinib) [µM] | IC50, cell viability 72 h (Gefitinib) [µM] | IC50, cell viability 72 h (Selumetinib) [µM] | IC50, cell viability 72 h (AZD0156; max 3 µM) [µM] | IC50, cell viability 72 h (Doxorubicin) [µM] | IC50, cell viability 72 h (Dasatinib) [µM] | IC50, cell viability 72 h (AZD1390) [µM] | IC50, cell viability 72 h (Palbociclib) [µM] | IC50, cell viability 72 h (Prexasertib) [µM] | IC50, cell viability 72 h (Crizotinib) [µM] | IC50, cell viability 72 h (Venetoclax) [µM] | IC50, cell viability 72 h (AZD2811) [µM] | IC50, cell viability 72 h (AZD6738) [µM] | IC50, cell viability 72 h (AZD5991) [µM] | IC50, cell viability 72 h (AZD1775; max 3 µM) [µM] | IC50, cell viability 72 h (AZD5153) [µM] | IC50, cell viability 72 h (Alisertib) [µM] | IC50, cell viability 72 h (AZD7648) [µM] | IC50, cell viability 72 h (AZD0156; max 1 µM) [µM] | IC50, cell viability 72 h (AZD1775; max 1 µM) [µM]
1 | NB1 (Neuroblastoma) | > 10 | > 3 | > 1 | > 10 | 0.024 | > 0.001 | 1.2 | > 1 | 5.18 | > 1 | > 10 | > 10 | > 3 | > 1 | > 2 | > 0.3 | > 10 | 0.184 | 0.628 | > 1 | 0.186 | 4.73 | > 1 | 1.36 | > 1 | > 10 | > 10 |  | 
2 | NCI-H1341 (Small Cell Lung Carcinoma) | > 10 | > 3 | 0.0593 | > 10 | 0.0138 | > 0.001 | 0.684 | > 1 | 9.05 | > 1 | > 10 | > 10 | > 3 | 0.587 | > 2 | > 0.3 | > 10 | 0.0471 | > 10 | > 1 | > 1 | 6.03 | > 1 | 1.24 | 0.739 | 0.91 | > 10 |  | 
3 | NCI-H1963 (Small Cell Lung Carcinoma) | > 10 | > 3 | 0.0152 | > 10 | 0.0367 | > 0.001 | 9.65 | > 1 | > 10 | > 1 | > 10 | 8.82 |  | 0.83 | > 2 | > 0.3 | 6.9 | 0.0443 | 3.04 | 0.614 | 0.0361 | 2.73 | > 1 |  | 0.0993 | 0.208 | > 10 | > 1 | 0.525
4 | NCI-H2373 (Mesothelioma) | > 10 | > 3 | > 1 | > 10 | 0.0589 | > 0.001 | 3.52 | > 1 | > 10 | > 1 | > 10 | > 10 | > 3 | 0.313 | > 2 | > 0.3 | > 10 | > 1 | > 10 | > 1 | > 1 | > 10 | > 1 | > 3 | > 1 | > 10 | > 10 |  | 
5 | OVCAR-3 (Ovarian Carcinoma) | > 10 | > 3 | > 1 | > 10 | 0.231 | > 0.001 | 5.63 | > 1 | > 10 | > 1 | > 10 | > 10 | > 3 | > 1 | > 2 | > 0.3 | > 10 | 0.198 | > 10 | > 1 | > 1 | > 10 | > 1 | 1.6 | 0.475 | > 10 | > 10 |  | 
6 | P30-OHK (B-Lymphoblastic Leukemia) | > 10 | > 3 | 0.173 | > 10 | 0.00937 | > 0.001 | 6.34 | > 1 | > 10 | > 1 | > 10 | > 10 | > 3 | 0.202 | > 2 | > 0.3 | > 10 | 0.0205 | 2.78 | > 1 | 0.0379 | 3.47 | 0.835 | 0.66 | 0.0633 | 0.231 | > 10 |  | 
7 | P32-ISH (Burkitt's Lymphoma) | 6.9 | > 3 | > 1 | > 10 | 0.00182 | > 0.001 | 8.18 | > 1 | 8.02 | > 1 | > 10 | > 10 | > 3 | 0.303 | > 2 | > 0.3 | 6.15 | 0.00537 | 2.27 | > 1 | 0.077 | 2.6 | 0.0501 | 0.218 | 0.136 | 0.02 | > 10 |  | 
8 | PA-TU-8988T (Pancreatic Carcinoma) | > 10 | > 3 | > 1 | > 10 | 0.185 | > 0.001 | 6.15 | > 1 | > 10 | > 1 | > 10 | > 10 | > 3 | 0.94 | 0.664 | > 0.3 | > 10 | > 1 | > 10 | > 1 | > 1 | > 10 | > 1 | 1.29 | 0.193 | > 10 | > 10 |  | 
